Measurements reported in ChEMBL document CHEMBL4725221, “Thiazoles, Their Benzofused Systems, and Thiazolidinone Derivatives: Versatile and Promising Tools to Combat Antibiotic Resistance” (J Med Chem, 2020).
Converted amounts (≈) assume the structure as drawn. Blank lines part the entries; values can stand above or below the molecule they belong to.

Columns and labels:
[1] = test system: Staphylococcus aureus; assay: Antibacterial activity against Staphylococcus aureus ATCC 6538 by CLSI protocol based microdilution method; format: functional, organism-based
[2] = test system: Staphylococcus aureus; assay: Antibacterial activity against Staphylococcus aureus ATCC 25923 by CLSI protocol based microdilution method; format: functional, organism-based
[3] = test system: Staphylococcus aureus; assay: Antibacterial activity against Staphylococcus aureus MLS16; format: functional
[4] = test system: Micrococcus luteus; assay: Antibacterial activity against Micrococcus luteus; format: functional
[5] = test system: Bacillus subtilis; assay: Antibacterial activity against Bacillus subtilis; format: functional
[6] = test system: Pseudomonas aeruginosa; assay: Antibacterial activity against Pseudomonas aeruginosa; format: functional
[7] = test system: Escherichia coli; assay: Antibacterial activity against Escherichia coli; format: functional
[8] = test system: Staphylococcus aureus; assay: Antibacterial activity against Staphylococcus aureus; format: functional
[9] = test system: Raoultella planticola; assay: Antibacterial activity against Klebsiella planticola; format: functional
[10] = test system: Escherichia coli; assay: Antibacterial activity against Escherichia coli AG102 in presence of ciprofloxacin; format: functional
[11] = test system: Escherichia coli; assay: Antibacterial activity against Escherichia coli AG102; format: functional
[12] = test system: Pseudomonas aeruginosa; assay: Antibacterial activity against Pseudomonas aeruginosa ATCC 27853 after 24 hrs by CLSI protocol based cup-plate agar diffusion method; format: functional
[13] = test system: Staphylococcus aureus; assay: Antibacterial activity against Staphylococcus aureus ATCC 49444 after 24 hrs by CLSI protocol based cup-plate agar diffusion method; format: functional
[14] = test system: Salmonella typhimurium; assay: Antibacterial activity against Salmonella typhimurium ATCC 14028 after 24 hrs by CLSI protocol based cup-plate agar diffusion method; format: functional, Salmonella enterica subsp. enterica serovar Typhimurium; conditions: Salmonella enterica
[15] = test system: Listeria monocytogenes; assay: Antibacterial activity against Listeria monocytogenes ATCC 19115 after 24 hrs by CLSI protocol based cup-plate agar diffusion method; format: functional
[16] = test system: Enterococcus faecalis; assay: Antibacterial activity against Enterococcus faecalis; format: functional
[17] = test system: Enterococcus faecalis; assay: Antibiofilm activity against Enterococcus faecalis; format: functional
[18] = test system: Staphylococcus aureus; assay: Antibacterial activity against Staphylococcus aureus MTCC 121 after 7 days by two-fold serial dilution method; format: functional; conditions: MTCC 121, 168 h, time 7 day
[19] = test system: Bacillus subtilis; assay: Antibacterial activity against Bacillus subtilis […] after 7 days by two-fold serial dilution method; format: functional; conditions: 168 h, time 7 day
[20] = test system: Pseudomonas aeruginosa; assay: Antibacterial activity against Pseudomonas aeruginosa MTCC 2453 after 7 days by two-fold serial dilution method; format: functional; conditions: MTCC 2453, 168 h, time 7 day
[21] = test system: Escherichia coli; assay: Antibacterial activity against Escherichia coli MTCC 40 after 7 days by two-fold serial dilution method; format: functional; conditions: MTCC 40, 168 h, time 7 day
[22] = test system: Staphylococcus saprophyticus; assay: Antibacterial activity against Staphylococcus saprophyticus; format: functional

SMILES: COCCn1cc(-c2nc(-c3cn(C)c4ccccc34)cs2)c2cc(F)ccc21
- IC50 [1]: 21 µg/mL (≈ 51.8 µM)
- IC50 [2]: 0.2 µg/mL (≈ 0.493 µM)

SMILES: O=c1oc2ccc3ccccc3c2cc1-c1csc(N/N=C/c2cn(-c3nc4ccccc4s3)nc2-c2cc3ccccc3oc2=O)n1
- MIC [3]: 7.8 µg/mL (≈ 11.7 µM)
- MIC [4]: > 125 µg/mL
- MIC [5]: 15.6 µg/mL (≈ 23.5 µM)
- MIC [6]: > 125 µg/mL
- MIC [7]: 7.8 µg/mL (≈ 11.7 µM)
- MIC [8]: 7.8 µg/mL (≈ 11.7 µM)
- MIC [9]: 7.8 µg/mL (≈ 11.7 µM)

SMILES: O=c1oc2c(Br)cccc2cc1-c1csc(N/N=C/c2cn(-c3nc4ccccc4s3)nc2-c2cc3ccccc3oc2=O)n1
- MIC [3]: 7.8 µg/mL (≈ 11.2 µM)
- MIC [4]: 7.8 µg/mL (≈ 11.2 µM)
- MIC [5]: 3.9 µg/mL (≈ 5.62 µM)
- MIC [6]: 7.8 µg/mL (≈ 11.2 µM)
- MIC [7]: 7.8 µg/mL (≈ 11.2 µM)
- MIC [8]: 7.8 µg/mL (≈ 11.2 µM)
- MIC [9]: 7.8 µg/mL (≈ 11.2 µM)

SMILES: O=c1oc2c(Br)cc(Br)cc2cc1-c1csc(N/N=C/c2cn(-c3nc4ccccc4s3)nc2-c2cc3ccccc3oc2=O)n1
- MIC [3]: 7.8 µg/mL (≈ 10.1 µM)
- MIC [4]: > 125 µg/mL
- MIC [5]: 3.9 µg/mL (≈ 5.05 µM)
- MIC [6]: > 125 µg/mL
- MIC [7]: 7.8 µg/mL (≈ 10.1 µM)
- MIC [8]: > 125 µg/mL
- MIC [9]: 7.8 µg/mL (≈ 10.1 µM)

SMILES: O=C(Nc1ccc(Cc2nc3ccccc3s2)cc1)c1ccc([N+](=O)[O-])cc1
- MIC [10]: 0.06 µg/mL
- MIC [11]: 128 µg/mL (≈ 329 µM)

SMILES: O=C(NN1C(=O)/C(=C/c2ccc(Cl)cc2)SC1c1cccc(Br)c1)c1ccc(-c2ccccc2)cc1 (stereo not given)
- MIC [18]: 6.25 µg/mL (≈ 10.9 µM)
- MIC [19]: 6.25 µg/mL (≈ 10.9 µM)
- MIC [20]: 6.25 µg/mL (≈ 10.9 µM)
- MIC [21]: 12.5 µg/mL (≈ 21.7 µM)

SMILES: N#Cc1ccc(-c2csc(-c3cccc(-c4csc(-c5ccccc5)n4)c3)n2)cc1
- MIC [16]: 62 µg/mL (≈ 147 µM)
- MBIC [17]: 0.002 mg/mL
- MIC [22]: 16 µg/mL (≈ 38 µM)

SMILES: Clc1ccc(-c2csc(-c3cccc(-c4csc(-c5ccccc5)n4)c3)n2)cc1
- MIC [16]: 32 µg/mL (≈ 74.2 µM)
- MBIC [17]: 0.016 mg/mL
- MIC [22]: 2 µg/mL (≈ 4.64 µM)

SMILES: O=C(NN1C(=O)/C(=C/c2cccc([N+](=O)[O-])c2)SC1c1cccc(Br)c1)c1ccc(-c2ccccc2)cc1 (stereo not given)
- MIC [18]: 1.56 µg/mL (≈ 2.66 µM)
- MIC [19]: 1.56 µg/mL (≈ 2.66 µM)
- MIC [20]: 1.56 µg/mL (≈ 2.66 µM)
- MIC [21]: 3.12 µg/mL (≈ 5.32 µM)

SMILES: O=C(Cc1ccc(F)cc1)Nc1ccc(-c2nc3ccccc3s2)cc1
- MIC [10]: 0.03 µg/mL
- MIC [11]: 128 µg/mL (≈ 353 µM)

SMILES: O=C(Nc1ccc(Cc2nc3ccccc3s2)cc1)c1ccc(Br)cc1
- MIC [10]: 0.03 µg/mL
- MIC [11]: 128 µg/mL (≈ 302 µM)

SMILES: Cc1sc(-c2cccc(-c3csc(-c4ccccc4)n3)c2)nc1-c1ccccc1
- MIC [16]: 250 µg/mL (≈ 609 µM)
- MBIC [17]: 0.004 mg/mL
- MIC [22]: > 1000 µg/mL

SMILES: COc1cccc(/C=N\n2c(S)nnc2-c2sc(-c3ccccc3)nc2C)c1
- MIC [12]: 1.9 µg/mL (≈ 4.66 µM)
- MIC [13]: 31.2 µg/mL (≈ 76.6 µM)
- MIC [14]: 31.2 µg/mL (≈ 76.6 µM)
- MIC [15]: 1.9 µg/mL (≈ 4.66 µM)

SMILES: COCCn1cc(-c2csc(-c3cn(C(=O)OC(C)(C)C)c4ccccc34)n2)c2ccccc21
- IC50 [1]: 6.9 µg/mL (≈ 14.6 µM)
- IC50 [2]: 1.8 µg/mL (≈ 3.8 µM)

SMILES: COc1ccc(/C=C2\SC(c3cccc(Br)c3)N(NC(=O)c3ccc(-c4ccccc4)cc3)C2=O)cc1 (stereo not given)
- MIC [18]: 3.12 µg/mL (≈ 5.46 µM)
- MIC [19]: 1.56 µg/mL (≈ 2.73 µM)
- MIC [20]: 12.5 µg/mL (≈ 21.9 µM)
- MIC [21]: 1.56 µg/mL (≈ 2.73 µM)

SMILES: O=C(Nc1ccc(Cc2nc3ccccc3s2)cc1)c1ccccc1
- MIC [10]: 0.016 µg/mL
- MIC [11]: 256 µg/mL (≈ 743 µM)

SMILES: O=C(NN1C(=O)/C(=C/c2ccccc2)SC1c1cccc(Br)c1)c1ccc(-c2ccccc2)cc1 (stereo not given)
- MIC [18]: 3.12 µg/mL (≈ 5.76 µM)
- MIC [19]: 3.12 µg/mL (≈ 5.76 µM)
- MIC [20]: 3.12 µg/mL (≈ 5.76 µM)
- MIC [21]: 6.25 µg/mL (≈ 11.5 µM)

SMILES: COc1ccc(-c2csc(N/N=C/c3cn(-c4nc5ccccc5s4)nc3-c3cc4ccccc4oc3=O)n2)cc1
- MIC [3]: 7.8 µg/mL (≈ 13.5 µM)
- MIC [4]: 7.8 µg/mL (≈ 13.5 µM)
- MIC [5]: 7.8 µg/mL (≈ 13.5 µM)
- MIC [6]: 7.8 µg/mL (≈ 13.5 µM)
- MIC [7]: 7.8 µg/mL (≈ 13.5 µM)
- MIC [8]: 7.8 µg/mL (≈ 13.5 µM)
- MIC [9]: 7.8 µg/mL (≈ 13.5 µM)

Further lines, with some results ahead:

- IC50 [1]: 18.8 µg/mL (≈ 36.8 µM)
- IC50 [2]: 2.9 µg/mL (≈ 5.68 µM)
SMILES: COCCn1cc(-c2csc(-c3cn(CCOC)c4ccc(Br)cc34)n2)c2ccccc21

- MIC [10]: 0.5 µg/mL
- MIC [11]: 64 µg/mL (≈ 159 µM)
SMILES: CCCCOc1ccc(C(=O)Nc2ccc(-c3nc4ccccc4s3)cc2)cc1

- MIC [12]: 1.9 µg/mL (≈ 4.8 µM)
- MIC [13]: 31.2 µg/mL (≈ 78.9 µM)
- MIC [14]: 62.5 µg/mL (≈ 158 µM)
- MIC [15]: 1.9 µg/mL (≈ 4.8 µM)
SMILES: Cc1nc(-c2ccccc2)sc1-c1nnc(S)n1/N=C\c1ccc(F)cc1

- MIC [12]: 1.9 µg/mL (≈ 4.5 µM)
- MIC [13]: 62.5 µg/mL (≈ 148 µM)
- MIC [14]: 62.5 µg/mL (≈ 148 µM)
- MIC [15]: 1.9 µg/mL (≈ 4.5 µM)
SMILES: Cc1nc(-c2ccccc2)sc1-c1nnc(S)n1/N=C\c1ccc([N+](=O)[O-])cc1

- MIC [16]: 16 µg/mL (≈ 35.8 µM)
SMILES: c1ccc(-c2nc(-c3cccc(-c4nc(-c5cccc6ccccc56)cs4)c3)cs2)cc1
- MBIC [17]: 0.004 mg/mL

- MIC [16]: 250 µg/mL (≈ 549 µM)
SMILES: NC(=O)c1cc(-c2csc(-c3cccc(-c4csc(-c5ccccc5)n4)c3)n2)ccc1O
- MBIC [17]: 0.008 mg/mL

- MIC [3]: 7.8 µg/mL (≈ 12.5 µM)
- MIC [4]: 7.8 µg/mL (≈ 12.5 µM)
- MIC [5]: 3.9 µg/mL (≈ 6.23 µM)
- MIC [6]: > 125 µg/mL
- MIC [7]: 7.8 µg/mL (≈ 12.5 µM)
- MIC [8]: 7.8 µg/mL (≈ 12.5 µM)
SMILES: O=c1oc2ccccc2cc1-c1nn(-c2nc3ccccc3s2)cc1/C=N/Nc1nc(-c2ccc(Br)cc2)cs1
- MIC [9]: 7.8 µg/mL (≈ 12.5 µM)

- MIC [18]: 3.12 µg/mL (≈ 6.15 µM)
- MIC [19]: 1.56 µg/mL (≈ 3.07 µM)
- MIC [20]: 3.12 µg/mL (≈ 6.15 µM)
- MIC [21]: 6.25 µg/mL (≈ 12.3 µM)
SMILES: O=C(NN1C(=O)/C(=C/c2cccc([N+](=O)[O-])c2)SC1c1ccccc1)c1ccc(-c2ccccc2)cc1 (stereo not given)

- MIC [18]: 3.12 µg/mL (≈ 6.28 µM)
- MIC [19]: 6.25 µg/mL (≈ 12.6 µM)
- MIC [20]: 12.5 µg/mL (≈ 25.1 µM)
- MIC [21]: 3.12 µg/mL (≈ 6.28 µM)
SMILES: O=C(NN1C(=O)/C(=C/c2ccc(Cl)cc2)SC1c1ccccc1)c1ccc(-c2ccccc2)cc1 (stereo not given)
